ChEMBL document CHEMBL1201862, “PubChem BioAssay data set” (2004)
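Exposure lasted 48 hours, with cells grown in 96-well plates and compounds tested at five concentrations. GI50 = concentration required for 50% inhibition of growth.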 Calls of active or inactive are those of the source. No stated cut-off is given here; in the data, active = GI50 up to about 1.1 µM and inactive = higher.

Experiments:
Test in all cases: NCI tumour cell line growth inhibition, 48 h
KM12 = tested on: KM12
OVCAR-8 = tested on: OVCAR-8
RXF 393 = tested on: RXF 393
SF-539 = tested on: SF-539
UO-31 = tested on: UO-31
HCT-116 = tested on: HCT-116
A498 = tested on: A498
HOP-62 = tested on: HOP-62
SNB-75 = tested on: SNB-75
SF-295 = tested on: SF-295
SK-MEL-5 = tested on: SK-MEL-5
UACC-62 = tested on: UACC-62
SF-268 = tested on: SF-268
A549 = tested on: A549
IGROV-1 = tested on: IGROV-1
PC-3 = tested on: PC-3
Hs-578T = tested on: Hs-578T
MDA-MB-435 = tested on: MDA-MB-435
T47D = tested on: T47D
MDA-MB-231 = tested on: MDA-MB-231

| SMILES | GI50 (KM12) | GI50 (OVCAR-8) | GI50 (RXF 393) | GI50 (SF-539) | GI50 (UO-31) | GI50 (HCT-116) | GI50 (A498) | GI50 (HOP-62) | GI50 (SNB-75) | GI50 (SF-295) | GI50 (SK-MEL-5) | GI50 (UACC-62) | GI50 (SF-268) | GI50 (A549) | GI50 (IGROV-1) | GI50 (PC-3) | GI50 (Hs-578T) | GI50 (MDA-MB-435) | GI50 (T47D) | GI50 (MDA-MB-231) |
| --- | --- | --- | --- | --- | --- | --- | --- | --- | --- | --- | --- | --- | --- | --- | --- | --- | --- | --- | --- | --- |
| O=C1CCCn2c3ccccc3c3ccnc1c32 | 62.1 µM (inactive) | 34.6 µM (inactive) | 24.8 µM (inactive) | 30.8 µM (inactive) | 35 µM (inactive) | 30.1 µM (inactive) | 14.9 µM (inactive) | 43.1 µM (inactive) | 34.3 µM (inactive) | 38.9 µM (inactive) | 34 µM (inactive) | 29.2 µM (inactive) | 30 µM (inactive) | 44.6 µM (inactive) | 34.2 µM (inactive) |  |  |  |  |  |
| CCOC(=O)/C(=C/c1ccccn1)C(=O)c1ccccc1 | 11.9 µM (inactive) | 14.5 µM (inactive) | 11.2 µM (inactive) | 16.7 µM (inactive) | 16.3 µM (inactive) | 13.8 µM (inactive) | 18.9 µM (inactive) | 15.2 µM (inactive) | 13.8 µM (inactive) | 13 µM (inactive) | 14.3 µM (inactive) | 9.59 µM (inactive) | 19.1 µM (inactive) | 19.2 µM (inactive) | 16.3 µM (inactive) |  |  |  |  |  |
| CCOC(=O)CCC(C(=O)OCC)n1nnc2ccc(Nc3c(C)[n+]([O-])c4cc(F)c(OCC)cc4[n+]3[O-])cc21 (stereo unspecified) | 80.4 µM (inactive) | 94.4 µM (inactive) | 41.8 µM (inactive) | 24.8 µM (inactive) | 54 µM (inactive) | 64.3 µM (inactive) | > 100 µM (inactive) | > 100 µM (inactive) | 79.4 µM (inactive) | 77.4 µM (inactive) | 50.8 µM (inactive) | 20.1 µM (inactive) | 28 µM (inactive) | 77.8 µM (inactive) | 48.1 µM (inactive) | > 100 µM (inactive) | > 100 µM (inactive) | 42.9 µM (inactive) | 30.2 µM (inactive) |  |
| O=C1/C(=C\c2cccc(Oc3ccccc3)c2)S(=O)(=O)C(c2ccccc2)N1c1ccc(Cl)cc1 (stereo unspecified) | 24 µM (inactive) | 16.9 µM (inactive) | 14.7 µM (inactive) | 23.7 µM (inactive) | 13.7 µM (inactive) | 13.9 µM (inactive) | 34.4 µM (inactive) | 27.8 µM (inactive) | 30.4 µM (inactive) | 5.28 µM (inactive) | 13.6 µM (inactive) | 7.82 µM (inactive) |  | 42.9 µM (inactive) | 14.7 µM (inactive) | 17.1 µM (inactive) |  | 7.94 µM (inactive) | 5.55 µM (inactive) | 14.8 µM (inactive) |
| CC1=C2C(O)C(C(C)CO)C(O)CC2(C)C(O)CC1 (stereo unspecified) | > 100 µM (inactive) | > 100 µM (inactive) | > 100 µM (inactive) | > 100 µM (inactive) | > 100 µM (inactive) | > 100 µM (inactive) | > 100 µM (inactive) | > 100 µM (inactive) | > 100 µM (inactive) | > 100 µM (inactive) | > 100 µM (inactive) | > 100 µM (inactive) | > 100 µM (inactive) | > 100 µM (inactive) | > 100 µM (inactive) |  |  |  |  |  |
| Cc1cc(-c2ccc(C(=O)O)[nH]2)on1 | > 100 µM (inactive) | 61.4 µM (inactive) | 74.8 µM (inactive) |  | 55.6 µM (inactive) | 29.2 µM (inactive) | > 100 µM (inactive) | 65.2 µM (inactive) | 44.3 µM (inactive) | 47.3 µM (inactive) | 16.1 µM (inactive) | 48 µM (inactive) | > 100 µM (inactive) | 34.8 µM (inactive) | 50.4 µM (inactive) | 68.5 µM (inactive) | 49.2 µM (inactive) | 6.98 µM (inactive) |  | > 100 µM (inactive) |
| O=P1(Oc2ccc(Cl)cc2Cl)Oc2ccc3ccccc3c2-c2c(ccc3ccccc23)O1 | 32.9 µM (inactive) | 40.1 µM (inactive) | 16 µM (inactive) | 21.6 µM (inactive) | 20.4 µM (inactive) | 26.5 µM (inactive) | 24.8 µM (inactive) | 20.2 µM (inactive) | 31.5 µM (inactive) | 34.8 µM (inactive) | 49.5 µM (inactive) | 26.7 µM (inactive) | 34.7 µM (inactive) | 49 µM (inactive) | 26.9 µM (inactive) |  |  |  |  |  |
| O/N=C1/C(=C/c2ccc(F)cc2)CCCC1C(NO)c1ccc(F)cc1 (stereo unspecified) | 22.3 µM (inactive) | 35.8 µM (inactive) | 21.3 µM (inactive) | 42.2 µM (inactive) | 25.6 µM (inactive) | 30 µM (inactive) | > 100 µM (inactive) | > 100 µM (inactive) | 50.1 µM (inactive) | 41 µM (inactive) | 19 µM (inactive) | 34.4 µM (inactive) | 23.2 µM (inactive) | 32.9 µM (inactive) | 89.1 µM (inactive) |  |  |  |  |  |
| CCOC(=O)C1CC(O)C(=O)N1C (stereo unspecified) |  |  | > 100 µM (inactive) | > 100 µM (inactive) | > 100 µM (inactive) | > 100 µM (inactive) |  | > 100 µM (inactive) |  | > 100 µM (inactive) | > 100 µM (inactive) | > 100 µM (inactive) |  | > 100 µM (inactive) | > 100 µM (inactive) | > 100 µM (inactive) |  | > 100 µM (inactive) | > 100 µM (inactive) | > 100 µM (inactive) |
| c1ccc(COc2ccc(CC3SCCCS3)cc2)cc1 |  | > 100 µM (inactive) |  |  |  | > 100 µM (inactive) |  | > 100 µM (inactive) |  | > 100 µM (inactive) | 35.2 µM (inactive) | > 100 µM (inactive) | > 100 µM (inactive) | > 100 µM (inactive) | 66.2 µM (inactive) | > 100 µM (inactive) |  | > 100 µM (inactive) | 49.7 µM (inactive) | 74.1 µM (inactive) |
| Nc1ccc(Oc2ccc(C3(c4ccc(Oc5ccc(N)cc5)cc4)C4CC5C6CC7CC5C3C(C7)C6C4)cc2)cc1 | 10.5 µM (inactive) | 4.97 µM (inactive) | 5.4 µM (inactive) | 42.5 µM (inactive) | 5.24 µM (inactive) | 18.3 µM (inactive) | 4.01 µM (inactive) | 72.9 µM (inactive) | > 100 µM (inactive) | 54.8 µM (inactive) | 52.6 µM (inactive) | 38.4 µM (inactive) | > 53.2 µM (inactive) | 0.706 µM (active) | > 52.1 µM (inactive) | > 45.4 µM (inactive) | 62.5 µM (inactive) | 19 µM (inactive) |  | 23.1 µM (inactive) |
| O=C(Nc1nc(C23CC4CC(CC(C4)C2)C3)cs1)c1cc2ccc(O)cc2oc1=O | 6.05 µM (inactive) | 6.67 µM (inactive) | 16.4 µM (inactive) | 17.1 µM (inactive) | 7.36 µM (inactive) | 10.1 µM (inactive) | 10.7 µM (inactive) | 15.2 µM (inactive) |  | 16.5 µM (inactive) | 13.7 µM (inactive) |  | 16.9 µM (inactive) | 15.9 µM (inactive) | 7.41 µM (inactive) | 13.5 µM (inactive) | 14.5 µM (inactive) | 8.38 µM (inactive) |  | 6.04 µM (inactive) |
| CCCCCCCCCCCCCCCCC1=CC(=O)C=C(OC)C1=O | 69.2 µM (inactive) | 49.3 µM (inactive) | 37 µM (inactive) | 47.3 µM (inactive) | > 100 µM (inactive) | 56 µM (inactive) | 48.5 µM (inactive) | > 100 µM (inactive) | > 100 µM (inactive) | > 100 µM (inactive) | > 100 µM (inactive) | 34.7 µM (inactive) | > 100 µM (inactive) | 89.5 µM (inactive) | > 100 µM (inactive) | 80.4 µM (inactive) | 37.6 µM (inactive) | > 100 µM (inactive) |  | > 100 µM (inactive) |
| NC(CCCCP(=O)(O)O)C(=O)O (stereo unspecified) | > 100 µM (inactive) | > 100 µM (inactive) | > 100 µM (inactive) | > 100 µM (inactive) | > 100 µM (inactive) | > 100 µM (inactive) |  |  | > 100 µM (inactive) | > 100 µM (inactive) | > 100 µM (inactive) | > 100 µM (inactive) | > 100 µM (inactive) | > 100 µM (inactive) | > 100 µM (inactive) | > 100 µM (inactive) | > 100 µM (inactive) | > 100 µM (inactive) | > 100 µM (inactive) | > 100 µM (inactive) |
| COc1ccc2[nH]c3c(C)c4cc[n+](C)cc4c(C)c3c2c1 | 1.62 µM (inactive) | 0.305 µM (active) | 1.32 µM (inactive) | 0.345 µM (active) | 21.7 µM (inactive) | 2 µM (inactive) |  | 0.621 µM (active) | 0.228 µM (active) | 0.332 µM (active) | 1.76 µM (inactive) | 3.48 µM (inactive) | 0.197 µM (active) |  | 2.19 µM (inactive) | 3.54 µM (inactive) | 0.199 µM (active) |  |  |  |
| CN(C)CCNC(=O)c1cc([N+](=O)[O-])cc2c1Oc1ccccc1O2 | 31 µM (inactive) | 14.4 µM (inactive) | 18.2 µM (inactive) | 24.8 µM (inactive) | 11.4 µM (inactive) | 7.33 µM (inactive) | 25.1 µM (inactive) | 22.5 µM (inactive) | 13 µM (inactive) | 22 µM (inactive) | 23 µM (inactive) | 11.9 µM (inactive) | 21.6 µM (inactive) | 13.5 µM (inactive) | 23.4 µM (inactive) | 42 µM (inactive) | 28.6 µM (inactive) | 39.7 µM (inactive) | 18.5 µM (inactive) |  |
| CC1(C)CCC2=C(O1)c1ccccc1/C(=N/c1ccc([N+](=O)[O-])cc1)C2=O | 14.5 µM (inactive) | 14 µM (inactive) | 16.5 µM (inactive) |  | 10.6 µM (inactive) | 7.33 µM (inactive) | 18.7 µM (inactive) | 17.1 µM (inactive) | 18.3 µM (inactive) |  | 16.7 µM (inactive) | 14.7 µM (inactive) | 29.7 µM (inactive) | 16.4 µM (inactive) | 51.1 µM (inactive) | 14 µM (inactive) | 29 µM (inactive) |  | 11.8 µM (inactive) | 17.7 µM (inactive) |
